# Source: patent publication US12636284B2, “Compositions for use in the prevention and/or treatment of intellectual disability and neurodegenerative diseases in a subject with down syndrome” (UNIVERSITA' DEGLI STUDI DI ROMA “LA SAPIENZA”, priority 2021, dated 2026)
# Key:
# Type in all cases: in vivo, mouse
# [1] = system: GABAergic transmission in Ts2Cje mice; test: Patch-clamp electrophysiology, CA1 neurons of hippocampal sections, Ts2Cje mice; conditions: Ts2Cje mice (Ts+S) vs vehicle-treated Ts2Cje, after 21 days intranasal treatment
# Text: (§1) The brain sections containing the hippocampus were obtained from mice belonging to the four experimental groups (Eu Veh, Eu SITA, Ts2 Veh and Ts2 SITA) at 9 months of age after being euthanized by an overdose of isofluorane. Brains were quickly removed and placed in an ice-cold cutting solution containing the following (in mM): 124 NaCl, 3.2 KCl, 1 NaH2PO4, 2 MgCl2, 1 CaCl2), 26 NaHCO3, 10 glucose, 2 Na-pyruvate and 0.6 ascorbic acid, pH 7.4, 95% O2/5% CO2. The brain sections containing the hippocampus ([…]) were cut using a vibratome (VT1000S; Leica Microsystems) and immediately transferred to an incubation chamber filled with ACSF containing the following (in mM): 124 NaCl, 3.2 KCl, 1 NaH2PO4, 1 MgCl2, 2 CaCl2, 26 NaHCO3 and 10 glucose, pH 7.4, 95% O2/5% CO2. Brain sections were allowed to recover at 32° C. for 1 hour before being equilibrated to room temperature. For electrophysiological recordings, brain sections were transferred to a recording chamber constantly perfused with heated ACSF (32° C.) and bubbled with 95% O2/5% CO2. Subsequently, the slices were used for electrophysiological recordings. All electrophysiological recordings were performed using the patch-clamp technique in the whole-cell configuration. […] Membrane capacity and resistance were assessed in the same neurons. […]
# [2] = system: MAPK44/42 and Akt pathway; test: Western blot of Akt and MAPK44/42 activation in hippocampus
# Procedure: For the duration of the treatment, the mice were weighed weekly in order to assess any weight changes. After 21 days of treatment, the animals underwent a behavioral test to assess their memory and learning abilities. After the behavioral test, metabolic parameters such as blood glucose (both fasting and under the glycemic curve), body surface area (BSA) and body mass index (BMI) were assessed. Finally, animals were sacrificed using cervical dislocation. The brain and peripheral areas were isolated and collected in liquid nitrogen and subsequently stored at −80° C. until they were used for biochemical analyzes.
# Total protein extracts were prepared from the frontal cortex for human autopsy samples and from the hippocampus for mouse samples, using RIPA solution (pH 7.4) containing TrisHCl (50 mM, pH 7.4), NaCl (150 mM), 1% NP-40, 0.25% sodium deoxycholate, ethylenediamine tetracetic acid (EDTA) (1 mM), and 0.1% sodium dodecyl sulfate (SDS). […] For the rest of the experiments, protein extracts were supplemented with cocktails of protease and phosphatase inhibitors (Sigma Aldrich, St Louis, MO, USA). Brain tissues were homogenized in the solution described above by sonication, and centrifuged at 14,000 rpm for 30 min at 4° C. The supernatant was used to determine total protein concentration by means of the bicinchoninic acid assay (BCA, Pierce, Rockford, IL). […]
# [3] = system: spontaneous neurotransmitter release in Eu mice; test: Patch-clamp electrophysiology, CA1 neurons of hippocampal sections, euploid mice; conditions: after 21 days intranasal treatment
# Text: as §1
# DYRK1A protein = test: Western blot of DYRK1A protein levels in hippocampus; conditions: hippocampus of Ts2Cje mice, 21 days intranasal treatment
# Procedure: Finally, animals were sacrificed using cervical dislocation. […] For Western blots, 20 μg of proteins from the hippocampus of mice belonging to the four experimental groups were separated by 4-15% SDS-PAGE CriterionTM […] (Bio-rad, Hercules, CAUSE). […] Therefore, the gel, once the image has been acquired, represents the total of the loaded proteins (Total Load), which will then be used to normalize the specific proteins to be examined. After electrophoresis and gel imaging, proteins are transferred via the semi-dry TransBlot Turbo apparatus (Bio-Rad Laboratories) onto nitrocellulose membranes (Bio-Rad, Hercules, CA, USA). Nitrocellulose membranes are blocked with 3% bovine serum albumin (BSA) in a solution of Tween 20-TBS and incubated overnight at 4° C. using specific primary antibodies: p([…])-GSK3B (1:1000, Santa Cruz, #sc-135653), p(S9)-GSK3β (1:1000, Cell Signaling, #5558S), GSK3β (1:1000 Abcam, #93926) and DYRK1A (1:1000, Cell Signaling, #8765S), MAPK44/42 (1:1000, Cell Signaling, #9102), p[…])-MAPK44/42 (1 1000, Cell Signaling, #9101), Akt (1:2000, Bio-Rad, # vma00253K), p(S473) Akt (1:1000, Cell Signaling, #4060S). After three washes with a T-TBS buffer solution, membranes were incubated for 1 hour at room temperature with the secondary antibodies. […] Finally, the results obtained were analyzed using the ImageLab program (Bio-rad, Hercules, CA, USA).
compound,measurement,setting,value
"N[C@@H](CC(=O)N1CCn2c(nnc2C(F)(F)F)C1)Cc1cc(F)c(F)cc1F [sitagliptin, (R)-4-oxo-4-[3-(trifluoromethyl)-5,6-dihydro[1,2,4]triazole[4,3-a]pyrazin-7(8H)-yl]-1-(2,4,5-trifluorophenyl)butan-2-amine]","spontaneous release rate of the neurotransmitter, CA1 hippocampal neurons",[1],completely reverts the increase in the spontaneous release rate of the neurotransmitter
same,"activation of the cerebral insulin signal, MAPK44/42",[2]; Western blot p(Thr202/Tyr204)-MAPK44/42,restoration of the activation
same,"activation of the cerebral insulin signal, Akt",[2]; Western blot p(ser473)-Akt,restoration of the activation
same,frequency and extent of spontaneous release of neurotransmitters,[3],no effect
same,expression levels of the DYRK1A protein,DYRK1A protein,significant reduction
